Measurements: the supplement of paper PMC10627819

What was measured:
[1] = test system: S. aureus DSM 20231; assay: fitness (endpoint OD595 vs no drug) (fraction); higher = more growth
In short: (§1)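 Fitness expresses the optical density reached at the stationary-phase transition as a fraction of the robust mean of no-drug control wells. It is capped at 1. Measurements were OD595 every 30 min for 14 h at 37 °C after inoculation of 384-well plates at OD595 0.01 (30 µl, or 55 µl for S. pneumoniae), minus the first reading.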

[2] = test system: S. pneumoniae D39V; assay: as above
In short: as §1

[3] = first compound 250 µg/mL, partner 1 µg/mL
[4] = first compound 250 µg/mL, partner 2 µg/mL
[5] = first compound 250 µg/mL, partner 4 µg/mL
[6] = first compound 500 µg/mL, partner 1 µg/mL
[7] = first compound 1000 µg/mL, partner 1 µg/mL
[8] = first compound 1000 µg/mL, partner 2 µg/mL
[9] = first compound 250 µg/mL, partner 1.25 µg/mL
[10] = first compound 250 µg/mL, partner 2.5 µg/mL
[11] = first compound 500 µg/mL, partner 1.25 µg/mL
[12] = first compound 500 µg/mL, partner 2.5 µg/mL
[13] = first compound 250 µg/mL, partner 5 µg/mL
[14] = first compound 500 µg/mL, partner 5 µg/mL
[15] = first compound 1000 µg/mL, partner 1.25 µg/mL
[16] = first compound 1000 µg/mL, partner 2.5 µg/mL
[17] = first compound 1000 µg/mL, partner 5 µg/mL
[18] = first compound 250 µg/mL, partner 0.125 µg/mL
[19] = first compound 1000 µg/mL, partner 0.125 µg/mL
[20] = first compound 250 µg/mL, partner 0.0312 µg/mL
[21] = first compound 250 µg/mL, partner 0.0625 µg/mL
[22] = first compound 500 µg/mL, partner 0.0312 µg/mL
[23] = first compound 500 µg/mL, partner 0.0625 µg/mL
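Further: OD595 on entry to stationary phase over no-drug wells; at most 1.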

CC(=O)Oc1ccccc1C(=O)O [Acetylsalicylic acid] + Cc1cc(NS(=O)(=O)c2ccc(N)cc2)no1 [Sulfamethoxazol]
fitness [1, 3]: 0.862
fitness [1, 4]: 0.855
fitness [1, 5]: 0.844
fitness [1, 6]: 0.683
fitness [1, 7]: 0.53
fitness [1, 8]: 0.522
fitness [2, 3]: 0.941
fitness [2, 4]: 0.946
fitness [2, 5]: 0.909
fitness [2, 6]: 0.905
fitness ([2]; first compound 500 µg/mL, partner 2 µg/mL): 0.926
fitness ([2]; first compound 500 µg/mL, partner 4 µg/mL): 0.872
fitness [2, 7]: 0.78
fitness [2, 8]: 0.811
fitness ([2]; first compound 1000 µg/mL, partner 4 µg/mL): 0.842

CC(=O)Oc1ccccc1C(=O)O [Acetylsalicylic acid] + Cc1ncc([N+](=O)[O-])n1CCO [Metronidazole]
fitness ([1]; first compound 250 µg/mL, partner 0.625 µg/mL): 0.939
fitness [1, 9]: ≥ 1
fitness [1, 10]: ≥ 1
fitness ([1]; first compound 500 µg/mL, partner 0.625 µg/mL): 0.778
fitness [1, 11]: 0.791
fitness [1, 12]: 0.759
fitness ([2]; first compound 250 µg/mL, partner 1.073 µg/mL): 0.982
fitness [2, 9]: 0.971
fitness ([2]; first compound 250 µg/mL, partner 2.145 µg/mL): 0.959
fitness [2, 10]: 0.989
fitness ([2]; first compound 250 µg/mL, partner 4.29 µg/mL): 0.937
fitness [2, 13]: 0.972
fitness ([2]; first compound 500 µg/mL, partner 1.073 µg/mL): 0.979
fitness [2, 11]: 0.975
fitness ([2]; first compound 500 µg/mL, partner 2.145 µg/mL): 0.965
fitness [2, 12]: 1
fitness ([2]; first compound 500 µg/mL, partner 4.29 µg/mL): 0.975
fitness [2, 14]: 0.965
fitness ([2]; first compound 1000 µg/mL, partner 1.073 µg/mL): 0.946
fitness [2, 15]: 0.906
fitness ([2]; first compound 1000 µg/mL, partner 2.145 µg/mL): 0.936
fitness [2, 16]: 0.914
fitness ([2]; first compound 1000 µg/mL, partner 4.29 µg/mL): 0.932
fitness [2, 17]: 0.915

CC(=O)Oc1ccccc1C(=O)O [Acetylsalicylic acid] + CC(=O)NC[C@H]1CN(c2ccc(N3CCOCC3)c(F)c2)C(=O)O1 [Linezolid]
fitness [1, 18]: 0.868
fitness ([1]; first compound 250 µg/mL, partner 0.25 µg/mL): 0.582
fitness ([1]; first compound 250 µg/mL, partner 0.5 µg/mL): 0.203
fitness ([1]; first compound 250 µg/mL, partner 1 µg/mL, one replicate): 0.0592
fitness ([1]; first compound 500 µg/mL, partner 0.25 µg/mL): 0.486
fitness ([1]; first compound 500 µg/mL, partner 0.5 µg/mL): 0.159
fitness ([1]; first compound 500 µg/mL, partner 1 µg/mL, one replicate): 0.0468
fitness [1, 19]: 0.509
fitness ([1]; first compound 1000 µg/mL, partner 0.25 µg/mL): 0.275
fitness ([1]; first compound 1000 µg/mL, partner 0.5 µg/mL): 0.117
fitness ([1]; first compound 1000 µg/mL, partner 1 µg/mL, one replicate): 0.0354
fitness ([2]; first compound 250 µg/mL, partner 0.105 µg/mL): 0.879
fitness ([2]; first compound 250 µg/mL, partner 0.2 µg/mL): 0.675
fitness ([2]; first compound 250 µg/mL, partner 0.21 µg/mL): 0.756
fitness ([2]; first compound 250 µg/mL, partner 0.4 µg/mL): 0.598
fitness ([2]; first compound 250 µg/mL, partner 0.42 µg/mL): 0.573
fitness ([2]; first compound 250 µg/mL, partner 0.8 µg/mL): 0.252
fitness ([2]; first compound 500 µg/mL, partner 0.105 µg/mL): 0.866
fitness ([2]; first compound 500 µg/mL, partner 0.2 µg/mL): 0.623
fitness ([2]; first compound 500 µg/mL, partner 0.21 µg/mL): 0.773
fitness ([2]; first compound 500 µg/mL, partner 0.4 µg/mL): 0.582
fitness ([2]; first compound 500 µg/mL, partner 0.42 µg/mL): 0.561
fitness ([2]; first compound 500 µg/mL, partner 0.8 µg/mL): 0.24
fitness ([2]; first compound 1000 µg/mL, partner 0.105 µg/mL): 0.776
fitness ([2]; first compound 1000 µg/mL, partner 0.2 µg/mL): 0.463
fitness ([2]; first compound 1000 µg/mL, partner 0.21 µg/mL): 0.712
fitness ([2]; first compound 1000 µg/mL, partner 0.4 µg/mL): 0.439
fitness ([2]; first compound 1000 µg/mL, partner 0.42 µg/mL): 0.442
fitness ([2]; first compound 1000 µg/mL, partner 0.8 µg/mL): 0.208

CC(=O)Oc1ccccc1C(=O)O [Acetylsalicylic acid] + CO[C@@]12[C@H](COC(N)=O)C3=C(C(=O)C(C)=C(N)C3=O)N1C[C@@H]1N[C@@H]12 [Mitomycin C]
fitness ([1]; first compound 250 µg/mL, partner 0.0156 µg/mL): 0.731
fitness [1, 20]: 0.674
fitness [1, 21]: 0.559
fitness ([1]; first compound 500 µg/mL, partner 0.0156 µg/mL): 0.612
fitness [1, 22]: 0.579
fitness [1, 23]: 0.483
fitness ([1]; first compound 1000 µg/mL, partner 0.0156 µg/mL): 0.446
fitness ([2]; first compound 250 µg/mL, partner 0.001075 µg/mL): ≥ 1
fitness ([2]; first compound 250 µg/mL, partner 0.002 µg/mL): 0.703
fitness ([2]; first compound 250 µg/mL, partner 0.00215 µg/mL): 0.888
fitness ([2]; first compound 250 µg/mL, partner 0.004 µg/mL): 0.733
fitness ([2]; first compound 250 µg/mL, partner 0.0043 µg/mL): 0.8
fitness ([2]; first compound 250 µg/mL, partner 0.008 µg/mL): 0.548
fitness ([2]; first compound 500 µg/mL, partner 0.001075 µg/mL): ≥ 1
fitness ([2]; first compound 500 µg/mL, partner 0.002 µg/mL): 0.673
fitness ([2]; first compound 500 µg/mL, partner 0.00215 µg/mL): 0.904
fitness ([2]; first compound 500 µg/mL, partner 0.004 µg/mL): 0.657
fitness ([2]; first compound 500 µg/mL, partner 0.0043 µg/mL): 0.811
fitness ([2]; first compound 500 µg/mL, partner 0.008 µg/mL): 0.454
fitness ([2]; first compound 1000 µg/mL, partner 0.001075 µg/mL): ≥ 1
fitness ([2]; first compound 1000 µg/mL, partner 0.002 µg/mL): 0.416
fitness ([2]; first compound 1000 µg/mL, partner 0.00215 µg/mL): 0.868
fitness ([2]; first compound 1000 µg/mL, partner 0.004 µg/mL): 0.426
fitness ([2]; first compound 1000 µg/mL, partner 0.0043 µg/mL): 0.774
fitness ([2]; first compound 1000 µg/mL, partner 0.008 µg/mL): 0.335

CC(=O)Oc1ccccc1C(=O)O [Acetylsalicylic acid] + COc1c(N2C[C@@H]3CCCN[C@@H]3C2)c(F)cc2c(=O)c(C(=O)O)cn(C3CC3)c12 [Moxifloxacin]
fitness ([1]; first compound 250 µg/mL, partner 0.0075 µg/mL): 0.799
fitness ([1]; first compound 250 µg/mL, partner 0.015 µg/mL): 0.7
fitness ([1]; first compound 250 µg/mL, partner 0.03 µg/mL): 0.649
fitness ([1]; first compound 250 µg/mL, partner 0.06 µg/mL, one replicate): 0.647
fitness ([1]; first compound 250 µg/mL, partner 0.12 µg/mL, one replicate): 0.532
fitness ([1]; first compound 500 µg/mL, partner 0.0075 µg/mL): 0.703
fitness ([1]; first compound 500 µg/mL, partner 0.015 µg/mL): 0.656
fitness ([1]; first compound 500 µg/mL, partner 0.03 µg/mL): 0.623
fitness ([1]; first compound 500 µg/mL, partner 0.06 µg/mL, one replicate): 0.627
fitness ([1]; first compound 500 µg/mL, partner 0.12 µg/mL, one replicate): 0.536
fitness ([1]; first compound 1000 µg/mL, partner 0.0075 µg/mL): 0.577
fitness ([1]; first compound 1000 µg/mL, partner 0.015 µg/mL): 0.58
fitness ([1]; first compound 1000 µg/mL, partner 0.03 µg/mL): 0.578
fitness ([1]; first compound 1000 µg/mL, partner 0.06 µg/mL, one replicate): 0.584
fitness ([1]; first compound 1000 µg/mL, partner 0.12 µg/mL, one replicate): 0.529
fitness ([2]; first compound 250 µg/mL, partner 0.005 µg/mL): 0.975
fitness ([2]; first compound 250 µg/mL, partner 0.01 µg/mL): 0.98
fitness ([2]; first compound 250 µg/mL, partner 0.02 µg/mL): 0.932
fitness [2, 20]: 0.188
fitness [2, 21]: 0.17
fitness [2, 18]: 0.0443
fitness ([2]; first compound 500 µg/mL, partner 0.005 µg/mL): 0.96
fitness ([2]; first compound 500 µg/mL, partner 0.01 µg/mL): 0.987
fitness ([2]; first compound 500 µg/mL, partner 0.02 µg/mL): 0.94
fitness [2, 22]: 0.192
fitness [2, 23]: 0.142
fitness ([2]; first compound 500 µg/mL, partner 0.125 µg/mL): 0.0397
fitness ([2]; first compound 1000 µg/mL, partner 0.01 µg/mL): 0.812
fitness ([2]; first compound 1000 µg/mL, partner 0.02 µg/mL): 0.829
fitness ([2]; first compound 1000 µg/mL, partner 0.0312 µg/mL): 0.216
fitness ([2]; first compound 1000 µg/mL, partner 0.0625 µg/mL): 0.137
fitness [2, 19]: 0.0308

CC(=O)Oc1ccccc1C(=O)O [Acetylsalicylic acid] + C[C@@H]1O[C@@H]1P(=O)(O)O [Fosfomycin]
fitness ([1]; first compound 250 µg/mL, partner 0.781 µg/mL): 0.621
fitness ([1]; first compound 250 µg/mL, partner 1.562 µg/mL): 0.537
fitness ([1]; first compound 250 µg/mL, partner 3.124 µg/mL): 0.487
fitness ([1]; first compound 500 µg/mL, partner 0.781 µg/mL): 0.619
fitness ([1]; first compound 500 µg/mL, partner 1.562 µg/mL): 0.546
fitness ([1]; first compound 500 µg/mL, partner 3.124 µg/mL): 0.452
fitness ([1]; first compound 1000 µg/mL, partner 0.781 µg/mL): 0.51
fitness ([1]; first compound 1000 µg/mL, partner 1.562 µg/mL): 0.438
fitness ([1]; first compound 1000 µg/mL, partner 3.124 µg/mL): 0.283
fitness [2, 9]: 0.989
fitness [2, 10]: 0.939
fitness [2, 13]: 0.831
fitness [2, 11]: 0.955
fitness [2, 12]: 0.939
fitness [2, 14]: 0.88
fitness [2, 15]: 0.862
fitness [2, 16]: 0.82
fitness [2, 17]: 0.791
